Molecules are shown by their SMILES.

The experiment concerns the target Steroid 5-alpha-reductase (Rattus norvegicus) (UniProt P24008+P31214). Description: Inhibition of rat Steroid 5-alpha-reductase was determined at 10e-8 M concentration. Type of experiment: protein assay.

Sequence of Steroid 5-alpha-reductase (Rattus norvegicus) (P24008 whole entry, looked up): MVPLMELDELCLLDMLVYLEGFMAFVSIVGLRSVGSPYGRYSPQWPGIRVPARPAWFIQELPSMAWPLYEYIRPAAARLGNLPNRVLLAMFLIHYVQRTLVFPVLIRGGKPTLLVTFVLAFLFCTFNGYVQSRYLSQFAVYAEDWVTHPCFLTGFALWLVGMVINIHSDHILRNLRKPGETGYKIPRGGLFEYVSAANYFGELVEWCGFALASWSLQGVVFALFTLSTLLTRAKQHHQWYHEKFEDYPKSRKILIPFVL
Sequence of Steroid 5-alpha-reductase (Rattus norvegicus) (P31214 whole entry, looked up): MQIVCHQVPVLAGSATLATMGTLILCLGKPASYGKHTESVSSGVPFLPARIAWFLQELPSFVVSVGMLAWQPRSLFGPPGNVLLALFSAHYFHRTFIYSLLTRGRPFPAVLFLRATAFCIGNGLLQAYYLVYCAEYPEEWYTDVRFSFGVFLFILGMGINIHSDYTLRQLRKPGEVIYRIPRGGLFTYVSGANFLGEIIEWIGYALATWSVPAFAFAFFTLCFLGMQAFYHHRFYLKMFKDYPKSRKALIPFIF

By inhibition is commonly meant the drop in the measured response relative to a control, in per cent. In turn, `CC12CCC3C(C[C@H]4NC(=O)CCC34C)C1CCC2C(=O)NC(c1ccccc1)c1ccccc1` (stereo partly specified) yielded an inhibition of 63%.

The values above are taken from ChEMBL document CHEMBL1127263, “Synthesis of B-NOR-4-AZA-5-androstane compound as 5-reductase inhibitor” (Bioorg Med Chem Lett, 1994).
